Assay results taken from patent US9278994B2, “Short antimicrobial lipopeptides” (Helix BioMedix Inc., priority 2012, dated 2016).
In brackets after ≈: the same amount, converted by molar mass. Where a SMILES comes first, the peptide text is derived from it. [ ]: non-standard residue; d: D form. The star is where a group is joined. Palmitoyl = CCCCCCCCCCCCCCCC(=O)*; Myristoyl = CCCCCCCCCCCCCC(=O)*; Undecanoyl = CCCCCCCCCCC(=O)*; Lauroyl = CCCCCCCCCCCC(=O)*; Decanoyl = CCCCCCCCCC(=O)*; Octanoyl = CCCCCCCC(=O)*

Tests used:
C. albicans 105 = test system: C. albicans 105
Method: (§1) We conducted the minimal inhibitory concentration (MIC) determination using CLSI (Clinical and Laboratory standard Institute) recommended standard protocol for antimicrobials (Methods for Dilution Antimicrobial Susceptibility Tests for Bacteria That Grow Aerobically; Approved Standard—Ninth Edition).
(§2) 2. Bacterial strains and culture conditions. E. coli UB1005, S. aureus SAP0017 (MRSA) and C. albicans 105 were grown in Mueller Hinton (MH) (Difco, BD Biosciences, MD) agar plates and broth (2 g of beef extract, 17.5 g of acid hydrolysis of casein and 1.5 g of starch per liter) at 37° C. unless otherwise indicated. Bacteria from frozen stock were subcultured onto freshly made MH agar plates prior to susceptibility testing. For P. acnes, the bacterium was grown in BBL™ Brain-Heart infusion (Becton, Dickinson & Company, Sparks Md.) broth or agar plates at 37° C. in anaerobic condition generated using a anaerobic jar and AnaeroGen™ (Oxoid, Basingstoke, Hampshire, England).
(§3) 3. […] The minimal inhibitory concentration (MIC) of each peptide was determined using modified CLSI microtiter broth dilution assay (Methods for Dilution Antimicrobial Susceptibility Tests for Bacteria That Grow Aerobically; Approved Standard—Ninth Edition). An inoculum of 10^5-10^6 colony forming units (CFU)/ml was used or 10^4 CFU/ml for yeast. The MIC value was taken as the lowest peptide concentration at which more than 90% of microbial growth was inhibited after 15 to 20 h of incubation at 37° C. For P. acnes, the incubation was kept under anaerobic condition at 37° C. for 2 weeks before MIC was determined Kill kinetics was performed using a given concentration (about 2-5-fold MIC) of peptide mixed with indicator microorganism. After appropriate dilution the cells were plated on agar plates after defined time intervals and incubated at 37° C. overnight. In the case of P. acnes an extended incubation period was required. The CFU was counted and plotted as survival of bacteria after peptide treatment over time, which indicates the effectiveness of a peptide to kill a microbe.

E. coli UB1005 = test system: E. coli UB1005
Method: as §1, §2, §3

S. aureus SAP0017 (MRSA) = test system: S. aureus SAP0017 (MRSA)
Method: as §1, §2, §3

P. acnes = format: cell-based, Propionibacterium acnes
Method: as §2, §3

Row | MIC C. albicans (C. albicans 105) | MIC E. coli (E. coli UB1005) | MIC S. aureus (S. aureus SAP0017 (MRSA)) | MIC P. acnes (P. acnes) | Structure (SMILES)
1 | >2000 µg/mL | >2000 µg/mL | >2000 µg/mL | >2000 µg/mL | CCCCCCCCCC(=O)N[C@@H](CCCCN)C(=O)N1CCC[C@@H]1C(=O)N[C@H](C(=O)O)[C@@H](C)O [HB2183, Dec-KdPT-OH] (Decanoyl-Lys-[dP]-Thr-OH)
2 | >2000 µg/mL | >2000 µg/mL | >2000 µg/mL | >2000 µg/mL | CCCCCCCCCC(=O)N[C@@H](CCCCN)C(=O)N1CCC[C@@H]1C(=O)N[C@H](C(N)=O)[C@@H](C)O [HB2179, Dec-K-dPT-NH2] (Decanoyl-Lys-[dP]-Thr-NH2)
3 | 500 µg/mL (≈ 0.951 mM) | 1000 µg/mL (≈ 1.9 mM) | 500 µg/mL (≈ 0.951 mM) | 128 µg/mL (≈ 0.243 mM) | CCCCCCCCCCCC(=O)N[C@@H](CCCCN)C(=O)N1CCC[C@@H]1C(=O)N[C@H](C(N)=O)[C@@H](C)O [HB2197, Lauroyl-kdPT-NH2] (Lauroyl-Lys-[dP]-Thr-NH2)
4 | >2000 µg/mL | >2000 µg/mL | >2000 µg/mL | >2000 µg/mL | CCCCCCCCCCCCCCCC(=O)N[C@@H](CCCCN)C(=O)N1CCC[C@@H]1C(=O)O [HB2256, Pal-K-dP-OH] (Palmitoyl-Lys-[dP]-OH)
5 | 1000 µg/mL (≈ 1.95 mM) | 2000 µg/mL (≈ 3.91 mM) | 1000 µg/mL (≈ 1.95 mM) | 256 to 500 µg/mL | CCCCCCCCCCC(=O)N[C@@H](CCCCN)C(=O)N1CCC[C@@H]1C(=O)N[C@H](C(N)=O)[C@@H](C)O [HB2196, Undecoyl-KdPT-NH2] (Undecanoyl-Lys-[dP]-Thr-NH2)
6 | 64 µg/mL (≈ 0.125 mM) | 32 µg/mL (≈ 0.0624 mM) | 16 µg/mL (≈ 0.0312 mM) | 1 to 4 µg/mL | CCCCCCCCCCCCCCCC(=O)N[C@@H](CCCCN)C(=O)N[C@@H](CCCCN)C(=O)O [HB2258, Pal-KK-OH]
7 | >2000 µg/mL | >2000 µg/mL | >2000 µg/mL | >2000 µg/mL | CCCCCCCC(=O)N[C@@H](CCCCN)C(=O)N1CCC[C@H]1C(=O)N[C@H](C(N)=O)C(C)C [HB2188, Octanoyl-KPV-NH2] (Octanoyl-Lys-Pro-Val-NH2)
8 | >2000 µg/mL | >2000 µg/mL | >2000 µg/mL | >2000 µg/mL | CCCCCCCCCCCCCCCC(=O)N[C@@H](CCCCN)C(=O)N[C@H](C(N)=O)C(C)C [HB2239, Pal-KV-NH2] (Palmitoyl-Lys-Val-NH2)
9 | >2000 µg/mL | 2000 µg/mL (≈ 3.92 mM) | 1000 µg/mL (≈ 1.96 mM) | 256 to 500 µg/mL | CCCCCCCCCCC(=O)N[C@@H](CCCCN)C(=O)N1CCC[C@H]1C(=O)N[C@H](C(N)=O)C(C)C [HB2189, Undecoyl-KPV-NH2] (Undecanoyl-Lys-Pro-Val-NH2)
10 | >2000 µg/mL | >2000 µg/mL | >2000 µg/mL | – | CCCCCCCCCCCCCCCC(=O)N[C@@H](CCCCN)C(=O)N[C@@H](CC(=O)O)C(N)=O [HB2252, Pal-KD-NH2] (Palmitoyl-Lys-Asp-NH2)
11 | 32 µg/mL (≈ 0.0564 mM) | 64 µg/mL (≈ 0.113 mM) | 32 µg/mL (≈ 0.0564 mM) | 2 to 4 µg/mL | CCCCCCCCCCCCCCC(=O)N[C@@H](CCCCN)C(=O)N1CCC[C@@H]1C(=O)N[C@H](C(N)=O)[C@@H](C)O [HB2199, Pentadecanoyl-KdPT-NH2]
12 | >2000 µg/mL | 250 µg/mL (≈ 0.477 mM) | 250 µg/mL (≈ 0.477 mM) | 64 µg/mL (≈ 0.122 mM) | CCCCCCCCCCCC(=O)N[C@@H](CCCCN)C(=O)N1CCC[C@H]1C(=O)N[C@H](C(N)=O)C(C)C [HB2190, Lauroyl-KPV-NH2] (Lauroyl-Lys-Pro-Val-NH2)
13 | >2000 µg/mL | >2000 µg/mL | >2000 µg/mL | >2000 µg/mL | CCCCCCCCCCCCCCCC(=O)N[C@@H](CCCCN)C(=O)N[C@@H](Cc1c[nH]c2ccccc12)C(N)=O [HB2248, Pal-KW-NH2] (Palmitoyl-Lys-Trp-NH2)
14 | >2000 µg/mL | >2000 µg/mL | >2000 µg/mL | >2000 µg/mL | CCCCCCCCCCCCCCCC(=O)N[C@@H](CCCCN)C(=O)N[C@@H](Cc1ccc(O)cc1)C(N)=O [HB2247, Pal-KY-NH2]
15 | >2000 µg/mL | >2000 µg/mL | >2000 µg/mL | >2000 µg/mL | CCCCCCCCCCCCCCCC(=O)N1CCC[C@H]1C(=O)N[C@H](C(N)=O)C(C)C [HB2205, Pal-PV-NH2] (Palmitoyl-Pro-Val-NH2)
16 | >2000 µg/mL | >2000 µg/mL | >2000 µg/mL | >2000 µg/mL | CCCCCCCCCCCCCCCC(=O)N[C@@H](CCCCN)C(=O)N[C@@H](Cc1ccccc1)C(N)=O [HB2241, Pal-KF-NH2]
17 | 64 µg/mL (≈ 0.116 mM) | 128 µg/mL (≈ 0.231 mM) | 64 µg/mL (≈ 0.116 mM) | 8 to 16 µg/mL | CCCCCCCCCCCCCC(=O)N[C@@H](CCCCN)C(=O)N1CCC[C@@H]1C(=O)N[C@H](C(N)=O)[C@@H](C)O [HB2198, Myristoyl-KdPT-NH2] (Myristoyl-Lys-[dP]-Thr-NH2)
18 | >2000 µg/mL | >2000 µg/mL | 1000 µg/mL (≈ 2.12 mM) | 128 µg/mL (≈ 0.272 mM) | CCCCCCCCCCCCCCCC(=O)N[C@@H](CCCCN)C(=O)N[C@@H](CO)C(N)=O [HB2245, Pal-KS-NH2]
19 | >2000 µg/mL | >2000 µg/mL | >2000 µg/mL | >2000 µg/mL | CCCCCCCC(=O)N[C@@H](CCCCN)C(=O)N1CCC[C@@H]1C(=O)N[C@H](C(N)=O)[C@@H](C)O [HB2195, Octanoyl-KdPT-NH2] (Octanoyl-Lys-[dP]-Thr-NH2)
20 | 128 µg/mL (≈ 0.266 mM) | 2000 µg/mL (≈ 4.16 mM) | 128 µg/mL (≈ 0.266 mM) | 4 to 16 µg/mL | CCCCCCCCCCCCCCCC(=O)N1CCC[C@H]1C(=O)N[C@@H](CCCCN)C(N)=O [HB2251, Pal-PK-NH2] (Palmitoyl-Pro-Lys-NH2)
21 | >2000 µg/mL | >2000 µg/mL | >2000 µg/mL | 256 to 1000 µg/mL | CCCCCCCCCCCCCCCC(=O)N[C@@H](CCCCN)C(=O)N[C@H](C(N)=O)[C@@H](C)O [HB2236, Pal-KT-NH2]
22 | >2000 µg/mL | >2000 µg/mL | >2000 µg/mL | >2000 µg/mL | CCCCCCCCCCCCCCCC(=O)N[C@@H](CCCCN)C(=O)N[C@@H](C)C(N)=O [HB2240, Pal-KA-NH2] (Palmitoyl-Lys-Ala-NH2)
23 | >2000 µg/mL | >2000 µg/mL | >2000 µg/mL | 1000 µg/mL (≈ 2.02 mM) | CCCCCCCCCC(=O)N[C@@H](CCCCN)C(=O)N1CCC[C@H]1C(=O)N[C@H](C(N)=O)C(C)C [HB2181, Dec-KPV-NH2] (Decanoyl-Lys-Pro-Val-NH2)
24 | 16 µg/mL (≈ 0.0275 mM) | 64 µg/mL (≈ 0.11 mM) | 4 µg/mL (≈ 0.00687 mM) | 2 µg/mL (≈ 0.00344 mM) | CCCCCCCCCCCCCCCC(=O)N[C@@H](CCCCN)C(=O)N1CCC[C@@H]1C(=O)N[C@H](C(N)=O)[C@@H](C)O [HB2200, Pal-K-dPT-NH2] (Palmitoyl-Lys-[dP]-Thr-NH2)
25 | >2000 µg/mL | >2000 µg/mL | >2000 µg/mL | >2000 µg/mL | CCCCCCCCCC(=O)N[C@@H](CCCCN)C(=O)N1CCC[C@H]1C(=O)N[C@H](C(=O)O)C(C)C [HB2185, Dec-KPV-OH] (Decanoyl-Lys-Pro-Val-OH)
26 | >2000 µg/mL | >2000 µg/mL | >2000 µg/mL | 128 to 256 µg/mL | CCCCCCCCCCCCCCCC(=O)N[C@@H](CCCCN)C(=O)N[C@@H](C(N)=O)[C@H](C)O [HB2237, Pal-K-dT-NH2]
27 | 32 µg/mL (≈ 0.0566 mM) | 64 µg/mL (≈ 0.113 mM) | 16 µg/mL (≈ 0.0283 mM) | 1 µg/mL (≈ 0.00177 mM) | CCCCCCCCCCCCCCC(=O)N[C@@H](CCCCN)C(=O)N1CCC[C@H]1C(=O)N[C@H](C(N)=O)C(C)C [HB2192, Pentadecanoyl-KPV-NH2]
28 | 16 µg/mL (≈ 0.0313 mM) | 2 µg/mL (≈ 0.00391 mM) | 4 µg/mL (≈ 0.00782 mM) | – | CCCCCCCCCCCCCCCC(=O)N[C@@H](CCCCN)C(=O)N[C@@H](CCCCN)C(N)=O [HB2238, Pal-KK-NH2]
